Laboratory results: US20140057940A1, “Methods for Treating or Preventing Cardiac and Neurological Disorders Using Chemokine Receptor Antagonists” (priority 2011, published 2014)

How the values were obtained:
SIV-infected macaques = settings: echocardiography, FIG. 7
[1] = test system: isolated macaque cardiomyocytes; assay: Calcium transient amplitude in isolated cardiomyocytes; assay type: cell-based; settings: FIG. 1E, ANOVA P=0.72
[2] = test system: SIV/17E-Fr and SIV/DeltaB670; assay: SIV-infected rhesus macaques: survival, CD4+ cell count and viral loads; assay type: in vivo
Excerpt: Twenty-two adult rhesus macaques (mean age=11 years) pre-screened for SIV, STLV-1, and simian type D retrovirus were inoculated intravenously with the macrophagetropic clone SIV/17E-Fr and the immunosuppressive swarm SIV/DeltaB670 (FIG. 3). Age-matched adult rhesus macaques (mean age=11 years) were inoculated with media alone as controls. […] At euthanasia, all animals were perfused with saline to remove blood from the systemic vasculature. Hearts were immediately harvested and samples were immersion fixed in Streck Tissue Fixative (Streck, Omaha, Nebr.) or flash frozen.

[3] = test system: CD68+ macrophages and CD163 expression in the myocardium; assay: Immunostaining for macrophage markers CD68 and CD163 in myocardium; assay type: in vivo, rhesus macaques; settings: SIV-infected macaques, FIG. 8
Excerpt: To characterize the mononuclear cell populations in myocardium, sections were immunostained for the macrophage marker CD68 and measured by quantitative image analysis. In uninfected animals, CD68+ immunostaining localized to single, round cells located diffusely throughout the myocardium with increased numbers around vessels, consistent with resident macrophages. In SIV-infected animals, CD68+macrophages in perivascular areas were more prominent, likely reflecting recruited, infiltrating macrophages. […] Myocardium was also immunostained for the macrophage marker CD 163. […] In control animals, spindle shaped CD163+ cells were present diffusely throughout the myocardium occasionally forming small clusters. In SIV-infected macaques, cells were similarly spindle shaped to stellate with more extensive cellular processes. […] Myocardial CD163 immunostaining was highly correlated with CD68 immunostaining.

[4] = test system: isolated macaque cardiomyocytes; assay: Sarcomeric contraction of field-stimulated (1 Hz) isolated single cardiomyocytes; assay type: cell-based
Excerpt: In addition to SIV, the chemokines CCL3, CCL4, and CCL5 can also bind to CCR5 and initiate signaling pathways. In order to evaluate the ability of CCL5 to alter sarcomeric contraction in a CCR5-dependent manner, isolated single cardiomyocytes were field stimulated (1 Hz) and sarcomeric contraction measured over time.

[5] = test system: CD68 and amyloid precursor protein (APP) in the brain; assay: Immunostaining for CD68 and amyloid precursor protein (APP) in the brain; assay type: in vivo, rhesus macaques; settings: 200 mg PO BID
Protocol: (§1) To determine whether the CCR5 antagonist maraviroc altered CNS disease progression, SIV-infected animals from were treated with maraviroc and CNS outcomes were compared with untreated SIV-infected animals. Specifically, six rhesus macaques were inoculated with SIV/17E-Fr and SIV/DeltaB670 and treated with maraviroc (200 mg PO BID) beginning 24 days post-inoculation until the study endpoint 180 days postinoculation, 22 SIV-infected animals served as untreated, SIV-infected controls, and 8 additional animals served as untreated, uninfected controls (Example 2). Maraviroc levels in plasma and CSF were measured using liquid chromatography tandem mass spectrometry. SIV RNA levels in plasma, CSF, spleen, and brain were measured by qRT-PCR. Immunostaining for CD68 and amyloid precursor protein (APP) in the brain was measured by digital image analysis. Group comparisons were performed by the Mann-Whitney test.

[6] = test system: SIV/17E-Fr and SIV/DeltaB670; assay: SIV RNA levels in plasma, CSF, spleen and brain by qRT-PCR; assay type: in vivo, rhesus macaques; settings: 200 mg PO BID from day 24 to day 180 post-inoculation
Protocol: as §1

[7] = SIV-infected macaques, 40 mg/kg orally twice per day
[8] = versus untreated SIV-infected macaques

4,4-difluoro-N-{(1S)-3-[exo-3-(3-isopropyl-5-methyl-4H-1,2,4-triazol-4-yl)-8-azabicyclo[3.2.1]oct-8-yl]-1-phenylpropyl}cyclohexanecarboxamide [maraviroc]
mitral inflow parameters consistent with diastolic dysfunction with impaired relaxation (SIV-infected macaques): significantly ameliorated
calcium transient amplitude ([1]; RANTES+MVC treatment): not altered
outcomes (CSF, plasma, spleen, heart viral load) versus rapid (RP) and long term progression (LTP) groups ([2]; FIG. 6, LTP over 180 days post-SIV inoculation): improves outcomes in both RP and LTP groups
CD4+ cell counts [2, 7]: increased
survival relative to the untreated cohort [2, 7]: significantly increased
viral load in CSF [2, 7]: reduced
viral load in heart [2, 7]: reduced
viral load in plasma [2, 7]: reduced
viral load in spleen [2, 7]: reduced
CD68+ macrophage level in myocardium [3]: do not change
CD163 expression by macrophages in myocardium [3]: lowered to levels present in uninfected and untreated subjects
effect on the induced reduction in sarcomeric contraction ([4]; addition after CCL5, FIG. 1A-1C): reversed
difference in shortening between baseline and treatment ([4]; after CCL5, P=0.72): no significant difference
effect on the CCL5-induced decrease in sarcomeric shortening ([4]; subsequent addition in the same cells, FIG. 1D): modulated the CCL5 effect towards basal contraction
CNS macrophage activation represented by CD68 immunostaining ([5]; P<0.001, FIG. 10): lowered
axonal APP immunostaining ([5]; P=0.003, FIG. 10): lowered
SIV RNA levels in spleen [6]: reduced
plasma viral load [6]: reduced
SIV RNA levels in CSF [6, 8]: significantly lower
SIV RNA levels in brain [6, 8]: significantly lower

B1: CCL5: specific chemokine ligand that can bind to CCR5 and initiate signaling pathways (protein, UniProt P13501 24-91, looked up)
C-C motif chemokine 5: SPYSSDTTPCCFAYIARPLPRAHIKEYFYTSGKCSNPAVVFVTRKNRQVCANPEKKWVREYINSLEMS
calcium transient amplitude ([1]; RANTES treatment): not altered
sarcomeric shortening ([4]; 14 VCM, mean of 20 contraction cycles/cell at steady state, FIG. 1D, p<0.001): significantly decreased
mean % decline in contraction from baseline contraction length ([4]; isolated macaque cardiomyocytes, FIG. 1C, P=0.009): 22%
